Source: ChEMBL document CHEMBL1201862, “PubChem BioAssay data set” (2004)
Calls of active or inactive are those of the source.

Experiments:
Prothrombin = Prothrombin (Bos taurus, UniProt P00735); test: thrombin inhibition, dose response, biochemical, fluorescence polarization, uHTS hits (AID 602369); assay type: functional
[1] = target: 26S proteasome non-ATPase regulatory subunit 14 (Homo sapiens, UniProt O00487); test: inhibition of proteasome subunit RPN11 – biochemical, fluorescence polarization, uHTS hits, confirmation (AID 602368); assay type: functional
26S proteasome non-ATPase regulatory subunit 14, sequence (O00487 whole entry): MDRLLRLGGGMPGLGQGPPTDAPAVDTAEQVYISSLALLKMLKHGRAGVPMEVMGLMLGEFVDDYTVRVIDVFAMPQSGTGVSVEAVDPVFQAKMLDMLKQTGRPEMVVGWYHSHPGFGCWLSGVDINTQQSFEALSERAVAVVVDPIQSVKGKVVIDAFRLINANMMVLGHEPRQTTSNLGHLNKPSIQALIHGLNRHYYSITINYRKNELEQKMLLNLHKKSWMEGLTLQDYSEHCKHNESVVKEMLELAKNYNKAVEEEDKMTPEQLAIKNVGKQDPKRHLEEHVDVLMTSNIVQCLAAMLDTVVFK

[2] = target: 72 kDa type IV collagenase (Homo sapiens, UniProt P08253); test: Dose Response validation of uHTS RPN11 inhibitor hits using a MMP-2 Fluorescence assay.; assay type: functional
72 kDa type IV collagenase, sequence (P08253 whole entry): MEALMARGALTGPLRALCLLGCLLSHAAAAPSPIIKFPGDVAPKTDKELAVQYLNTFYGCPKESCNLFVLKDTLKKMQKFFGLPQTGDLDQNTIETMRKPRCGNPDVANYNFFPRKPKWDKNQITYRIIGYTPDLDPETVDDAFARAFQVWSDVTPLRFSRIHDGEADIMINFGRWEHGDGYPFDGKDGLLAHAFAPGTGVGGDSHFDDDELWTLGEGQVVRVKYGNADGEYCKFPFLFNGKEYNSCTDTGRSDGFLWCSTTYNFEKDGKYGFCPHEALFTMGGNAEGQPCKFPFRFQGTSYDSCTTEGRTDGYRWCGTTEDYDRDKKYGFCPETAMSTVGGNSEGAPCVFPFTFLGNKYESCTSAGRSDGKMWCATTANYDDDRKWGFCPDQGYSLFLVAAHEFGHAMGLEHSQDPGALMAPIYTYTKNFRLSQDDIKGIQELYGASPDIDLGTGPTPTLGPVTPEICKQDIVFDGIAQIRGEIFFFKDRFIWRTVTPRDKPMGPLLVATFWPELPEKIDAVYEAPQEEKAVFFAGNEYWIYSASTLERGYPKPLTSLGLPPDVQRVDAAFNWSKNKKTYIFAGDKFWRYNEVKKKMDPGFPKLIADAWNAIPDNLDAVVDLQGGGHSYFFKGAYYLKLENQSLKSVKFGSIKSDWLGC

[3] = target: T1, Adenosylmethionine-8-amino-7-oxononanoate aminotransferase (Mycobacterium tuberculosis, UniProt P9WQ81); test: Mycobacterium tuberculosis BioA enzyme inhibitor Measured in Biochemical System Using Plate Reader - 2163-02_Inhibitor_Dose_CherryPick_Activity.; assay type: functional, Mycobacterium tuberculosis UT205
T1 sequence (P9WQ81 whole entry): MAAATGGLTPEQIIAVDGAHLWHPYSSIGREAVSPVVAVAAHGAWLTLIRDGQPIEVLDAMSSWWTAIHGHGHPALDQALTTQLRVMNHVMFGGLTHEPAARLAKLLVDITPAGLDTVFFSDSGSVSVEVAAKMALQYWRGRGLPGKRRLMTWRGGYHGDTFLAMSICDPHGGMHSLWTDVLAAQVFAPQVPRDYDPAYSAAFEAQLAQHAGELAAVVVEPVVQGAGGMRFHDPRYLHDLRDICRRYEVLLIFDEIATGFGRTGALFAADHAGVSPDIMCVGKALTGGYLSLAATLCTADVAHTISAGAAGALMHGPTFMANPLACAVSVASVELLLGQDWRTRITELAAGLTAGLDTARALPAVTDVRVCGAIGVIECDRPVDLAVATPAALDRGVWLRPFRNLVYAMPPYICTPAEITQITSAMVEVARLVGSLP

[4] = target: T2, Probable nicotinate-nucleotide adenylyltransferase (Staphylococcus aureus (strain N315), UniProt P65502); assay type: functional, Staphylococcus aureus subsp. aureus N315;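 as to IC50 Mean: confirmatory dose-response retesting of NadD inhibitor hits first found in an ultra-high-throughput screen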
T2 sequence (P65502 whole entry): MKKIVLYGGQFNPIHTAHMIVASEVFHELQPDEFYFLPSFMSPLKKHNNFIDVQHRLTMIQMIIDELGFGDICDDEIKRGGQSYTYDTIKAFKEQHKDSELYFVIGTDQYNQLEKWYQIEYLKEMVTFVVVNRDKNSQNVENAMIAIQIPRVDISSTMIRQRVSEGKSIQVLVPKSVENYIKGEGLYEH

[5] = target: T2, Probable nicotinate-nucleotide adenylyltransferase; assay type: functional, Staphylococcus aureus subsp. aureus N315; conditions: read-out: IC50_Mean
[6] = HEp-2 cell cytotoxicity, dose response, cytotoxicity control for RSV inhibitor project, HTS (AID 2410); assay type: functional; conditions: human respiratory syncytial virus
Beta-lactamase [7] = target: T3, Beta-lactamase (Pseudomonas aeruginosa, UniProt Q79MP6); test: IMP-1 metallo-beta-lactamase inhibitors, dose response, selectivity assay for VIM-2 inhibitor project, biochemical, epi-absorbance (AID 1920)
T3 sequence (Q79MP6 whole entry): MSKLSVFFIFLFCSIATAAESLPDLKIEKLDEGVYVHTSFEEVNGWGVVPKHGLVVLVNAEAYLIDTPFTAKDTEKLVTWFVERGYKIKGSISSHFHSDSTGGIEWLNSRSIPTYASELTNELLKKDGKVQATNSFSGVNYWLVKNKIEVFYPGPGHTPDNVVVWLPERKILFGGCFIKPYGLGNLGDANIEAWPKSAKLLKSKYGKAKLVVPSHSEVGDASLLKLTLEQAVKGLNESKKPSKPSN

Beta-lactamase [8] = target: Beta-lactamase (Salmonella choleraesuis (strain SC-B67), UniProt Q5J463); test: Epi-absorbance-based counterscreen for selective VIM-2 inhibitors: dose response biochemical high throughput screening assay to identify inhibitors of TEM-1 serine-beta-lactamase.
Beta-lactamase (Salmonella choleraesuis (strain SC-B67), UniProt Q5J463), sequence (Q5J463 whole entry): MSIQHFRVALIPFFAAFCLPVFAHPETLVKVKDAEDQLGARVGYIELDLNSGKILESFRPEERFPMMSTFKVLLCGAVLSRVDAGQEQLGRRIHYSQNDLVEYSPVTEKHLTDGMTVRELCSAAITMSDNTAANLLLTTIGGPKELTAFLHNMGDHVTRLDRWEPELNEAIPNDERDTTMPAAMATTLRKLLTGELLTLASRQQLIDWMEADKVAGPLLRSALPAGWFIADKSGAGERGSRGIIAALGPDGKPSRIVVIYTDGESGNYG

Beta-lactamase [9] = target: T3, Beta-lactamase; test: […] counterscreen for selective VIM-2 inhibitors: dose response biochemical high throughput screening assay to identify inhibitors of IMP-1 metallo-beta-lactamase.
[10] = target: Protein-tyrosine kinase 2-beta (Homo sapiens, UniProt Q14289);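 also: potency of inhibitors of PYK2 kinase phosphorylation of poly-GT substrate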
Protein-tyrosine kinase 2-beta, sequence (Q14289 whole entry): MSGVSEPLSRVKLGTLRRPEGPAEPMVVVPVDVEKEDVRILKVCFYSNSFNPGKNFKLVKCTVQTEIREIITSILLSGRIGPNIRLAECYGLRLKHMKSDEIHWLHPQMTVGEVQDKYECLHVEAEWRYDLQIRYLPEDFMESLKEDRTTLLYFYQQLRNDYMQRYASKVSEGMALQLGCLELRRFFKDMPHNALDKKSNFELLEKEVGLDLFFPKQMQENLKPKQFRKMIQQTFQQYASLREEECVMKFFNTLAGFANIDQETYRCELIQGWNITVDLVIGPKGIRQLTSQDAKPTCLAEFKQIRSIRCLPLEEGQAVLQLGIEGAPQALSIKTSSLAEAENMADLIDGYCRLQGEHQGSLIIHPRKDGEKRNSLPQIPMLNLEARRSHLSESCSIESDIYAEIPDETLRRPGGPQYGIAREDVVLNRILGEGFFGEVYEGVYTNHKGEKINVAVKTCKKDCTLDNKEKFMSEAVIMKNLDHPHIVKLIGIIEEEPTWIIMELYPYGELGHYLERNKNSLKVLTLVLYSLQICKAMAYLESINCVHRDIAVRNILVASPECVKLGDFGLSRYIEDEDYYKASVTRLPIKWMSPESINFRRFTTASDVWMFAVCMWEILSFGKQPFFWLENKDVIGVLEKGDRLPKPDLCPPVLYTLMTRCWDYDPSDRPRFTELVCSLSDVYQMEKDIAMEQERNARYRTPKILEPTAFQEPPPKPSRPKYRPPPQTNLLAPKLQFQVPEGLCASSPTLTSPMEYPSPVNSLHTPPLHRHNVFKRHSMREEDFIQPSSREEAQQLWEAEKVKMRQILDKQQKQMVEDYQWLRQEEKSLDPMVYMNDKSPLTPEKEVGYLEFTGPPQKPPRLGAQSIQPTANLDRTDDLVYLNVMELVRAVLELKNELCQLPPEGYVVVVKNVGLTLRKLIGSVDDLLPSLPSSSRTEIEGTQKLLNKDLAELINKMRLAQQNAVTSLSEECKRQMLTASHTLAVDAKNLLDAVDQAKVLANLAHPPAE

Protein Wnt-3a = Protein Wnt-3a (Mus musculus, UniProt P27467); test: Wnt3a-driven reporter signaling inhibition, dose response, selectivity assay for Gli-SUFU antagonist project, Wnt-LIGHT cells, luminescence (AID 651570); assay type: functional; conditions: read-out: IC50_Mean;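 also: Wnt-LIGHT reporter cells stimulated with conditioned medium from Wnt3a-producing cells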
Protein Wnt-3a, sequence (P27467 whole entry): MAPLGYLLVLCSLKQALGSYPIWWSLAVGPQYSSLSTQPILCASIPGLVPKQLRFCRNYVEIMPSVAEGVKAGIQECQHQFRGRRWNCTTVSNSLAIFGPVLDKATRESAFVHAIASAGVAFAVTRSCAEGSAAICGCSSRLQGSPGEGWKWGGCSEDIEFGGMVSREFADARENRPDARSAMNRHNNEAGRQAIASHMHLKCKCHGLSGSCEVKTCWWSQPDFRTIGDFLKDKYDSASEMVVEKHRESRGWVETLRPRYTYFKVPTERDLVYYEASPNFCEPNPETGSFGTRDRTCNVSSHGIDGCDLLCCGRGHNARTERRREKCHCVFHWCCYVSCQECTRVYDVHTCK

[11] = control 3'UTR Renilla luciferase suppression, dose response, counter-screen for Shn3 inhibitor project, cell-based, Clone20-Shn3RL, cherry-picked (AID 624133); assay type: functional
[12] = Shn3 3'UTR reporter inhibitors, dose response, cell-based, Clone20 osteoblasts, firefly luciferase, cherry-picked (AID 624132); assay type: functional;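 also: firefly luciferase luminescence from reporter carrying the Shn3 3'UTR in osteoblasts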
[13] = target: Induced myeloid leukemia cell differentiation protein Mcl-1 (Homo sapiens, UniProt Q07820); assay type: functional
Induced myeloid leukemia cell differentiation protein Mcl-1, sequence (Q07820 whole entry): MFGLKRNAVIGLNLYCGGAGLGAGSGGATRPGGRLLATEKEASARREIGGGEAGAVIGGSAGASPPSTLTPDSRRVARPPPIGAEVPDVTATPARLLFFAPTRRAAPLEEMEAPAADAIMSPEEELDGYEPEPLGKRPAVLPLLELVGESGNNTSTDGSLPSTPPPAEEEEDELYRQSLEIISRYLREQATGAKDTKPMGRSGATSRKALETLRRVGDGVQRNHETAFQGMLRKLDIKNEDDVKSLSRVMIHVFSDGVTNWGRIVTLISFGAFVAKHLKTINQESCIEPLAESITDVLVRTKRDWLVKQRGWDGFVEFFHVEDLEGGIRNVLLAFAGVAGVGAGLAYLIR

Cytochrome P450 2C19 = Cytochrome P450 2C19 (Homo sapiens, UniProt P33261); test: Cytochrome panel assay with activity outcomes. Panel member name: p450-cyp2c19 Compounds with AC50 equal or less than 10 uM are considered active; assay type: functional; conditions: read-out: AC50
Cytochrome P450 2C19, sequence (P33261 whole entry): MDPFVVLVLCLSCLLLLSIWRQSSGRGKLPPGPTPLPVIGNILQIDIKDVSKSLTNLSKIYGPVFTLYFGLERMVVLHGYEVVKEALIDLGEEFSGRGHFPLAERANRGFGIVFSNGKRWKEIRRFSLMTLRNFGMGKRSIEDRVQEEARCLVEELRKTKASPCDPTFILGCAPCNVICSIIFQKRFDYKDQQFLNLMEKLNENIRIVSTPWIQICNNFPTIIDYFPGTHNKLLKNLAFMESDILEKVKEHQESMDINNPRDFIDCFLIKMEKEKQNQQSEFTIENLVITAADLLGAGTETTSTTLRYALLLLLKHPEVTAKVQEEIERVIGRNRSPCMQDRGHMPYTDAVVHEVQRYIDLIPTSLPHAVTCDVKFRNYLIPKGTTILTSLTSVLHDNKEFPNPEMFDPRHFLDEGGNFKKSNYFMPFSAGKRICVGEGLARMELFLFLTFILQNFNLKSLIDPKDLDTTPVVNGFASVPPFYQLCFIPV

Cytochrome P450 2C9 = Cytochrome P450 2C9 (Homo sapiens, UniProt P11712)
Cytochrome P450 2C9, sequence (P11712 whole entry): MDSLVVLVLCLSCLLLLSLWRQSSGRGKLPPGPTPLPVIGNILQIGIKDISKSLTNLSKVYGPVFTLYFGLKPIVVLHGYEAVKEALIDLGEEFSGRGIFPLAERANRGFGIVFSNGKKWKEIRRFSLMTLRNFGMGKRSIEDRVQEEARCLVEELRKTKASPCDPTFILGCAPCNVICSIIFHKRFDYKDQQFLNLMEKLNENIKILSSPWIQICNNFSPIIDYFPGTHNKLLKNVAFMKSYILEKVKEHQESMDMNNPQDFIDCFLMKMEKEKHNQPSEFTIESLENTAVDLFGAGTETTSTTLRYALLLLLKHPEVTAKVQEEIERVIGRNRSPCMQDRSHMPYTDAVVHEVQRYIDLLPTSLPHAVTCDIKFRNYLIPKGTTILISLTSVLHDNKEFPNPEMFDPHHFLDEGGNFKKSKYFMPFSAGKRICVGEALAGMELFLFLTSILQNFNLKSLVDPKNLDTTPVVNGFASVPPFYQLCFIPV

Cytochrome P450 3A4 = Cytochrome P450 3A4 (Homo sapiens, UniProt P08684);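 also: CYP3A4 tested as one member of a cytochrome P450 panel screen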
Cytochrome P450 3A4, sequence (P08684 whole entry): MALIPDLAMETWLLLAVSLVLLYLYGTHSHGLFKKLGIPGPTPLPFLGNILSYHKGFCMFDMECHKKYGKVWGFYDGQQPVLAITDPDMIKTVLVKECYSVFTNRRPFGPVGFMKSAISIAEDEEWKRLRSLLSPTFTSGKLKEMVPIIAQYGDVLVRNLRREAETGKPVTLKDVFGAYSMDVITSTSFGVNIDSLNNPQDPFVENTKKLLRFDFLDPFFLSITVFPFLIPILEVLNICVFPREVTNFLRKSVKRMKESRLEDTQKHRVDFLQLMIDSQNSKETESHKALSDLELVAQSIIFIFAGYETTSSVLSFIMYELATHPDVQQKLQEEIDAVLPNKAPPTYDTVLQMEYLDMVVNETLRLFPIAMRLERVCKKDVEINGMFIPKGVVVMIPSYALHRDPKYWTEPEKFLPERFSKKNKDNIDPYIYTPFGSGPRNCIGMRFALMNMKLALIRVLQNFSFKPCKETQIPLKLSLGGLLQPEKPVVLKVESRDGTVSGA

[14] = HepG2 cell cytotoxicity, dose response, cytotoxicity control for Shn3 inhibitor project, CellTiter-Glo, cherry-picked (AID 624134); assay type: functional, cell-based
Caspase-3 = target: T4, Caspase-3 (Homo sapiens, UniProt P42574); assay type: functional;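 also: Dose-response selectivity test against caspase-3 for candidate inhibitors of sentrin-specific proteases (SENPs)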
T4 sequence (P42574 whole entry): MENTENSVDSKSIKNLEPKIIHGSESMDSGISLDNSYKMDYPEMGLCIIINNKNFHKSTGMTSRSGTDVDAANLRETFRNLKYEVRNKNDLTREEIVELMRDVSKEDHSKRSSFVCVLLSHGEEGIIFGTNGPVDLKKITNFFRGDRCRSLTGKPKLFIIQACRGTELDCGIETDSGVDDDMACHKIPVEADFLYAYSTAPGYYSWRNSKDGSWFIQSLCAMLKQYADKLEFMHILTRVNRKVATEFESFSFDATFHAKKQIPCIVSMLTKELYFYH

[15] = target: T5, Sentrin-specific protease 8 (Homo sapiens, UniProt Q96LD8); assay type: functional;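 also: luminescence read-out of SENP8 inhibition, dose-response confirmation following an ultra-high-throughput screen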
T5 sequence (Q96LD8 whole entry): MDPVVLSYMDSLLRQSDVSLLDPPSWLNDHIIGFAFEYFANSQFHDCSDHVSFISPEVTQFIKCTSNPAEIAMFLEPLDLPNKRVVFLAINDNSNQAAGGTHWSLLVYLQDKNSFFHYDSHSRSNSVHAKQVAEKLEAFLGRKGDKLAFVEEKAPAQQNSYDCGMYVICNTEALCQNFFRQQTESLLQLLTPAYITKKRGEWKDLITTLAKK

[16] = target: T6, Sentrin-specific protease 6 (Homo sapiens, UniProt Q9GZR1); assay type: functional;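 also: Luminescence-based dose-response confirmatory assay of SENP6 inhibition, following up an ultra-high-throughput screen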
T6 sequence (Q9GZR1 whole entry): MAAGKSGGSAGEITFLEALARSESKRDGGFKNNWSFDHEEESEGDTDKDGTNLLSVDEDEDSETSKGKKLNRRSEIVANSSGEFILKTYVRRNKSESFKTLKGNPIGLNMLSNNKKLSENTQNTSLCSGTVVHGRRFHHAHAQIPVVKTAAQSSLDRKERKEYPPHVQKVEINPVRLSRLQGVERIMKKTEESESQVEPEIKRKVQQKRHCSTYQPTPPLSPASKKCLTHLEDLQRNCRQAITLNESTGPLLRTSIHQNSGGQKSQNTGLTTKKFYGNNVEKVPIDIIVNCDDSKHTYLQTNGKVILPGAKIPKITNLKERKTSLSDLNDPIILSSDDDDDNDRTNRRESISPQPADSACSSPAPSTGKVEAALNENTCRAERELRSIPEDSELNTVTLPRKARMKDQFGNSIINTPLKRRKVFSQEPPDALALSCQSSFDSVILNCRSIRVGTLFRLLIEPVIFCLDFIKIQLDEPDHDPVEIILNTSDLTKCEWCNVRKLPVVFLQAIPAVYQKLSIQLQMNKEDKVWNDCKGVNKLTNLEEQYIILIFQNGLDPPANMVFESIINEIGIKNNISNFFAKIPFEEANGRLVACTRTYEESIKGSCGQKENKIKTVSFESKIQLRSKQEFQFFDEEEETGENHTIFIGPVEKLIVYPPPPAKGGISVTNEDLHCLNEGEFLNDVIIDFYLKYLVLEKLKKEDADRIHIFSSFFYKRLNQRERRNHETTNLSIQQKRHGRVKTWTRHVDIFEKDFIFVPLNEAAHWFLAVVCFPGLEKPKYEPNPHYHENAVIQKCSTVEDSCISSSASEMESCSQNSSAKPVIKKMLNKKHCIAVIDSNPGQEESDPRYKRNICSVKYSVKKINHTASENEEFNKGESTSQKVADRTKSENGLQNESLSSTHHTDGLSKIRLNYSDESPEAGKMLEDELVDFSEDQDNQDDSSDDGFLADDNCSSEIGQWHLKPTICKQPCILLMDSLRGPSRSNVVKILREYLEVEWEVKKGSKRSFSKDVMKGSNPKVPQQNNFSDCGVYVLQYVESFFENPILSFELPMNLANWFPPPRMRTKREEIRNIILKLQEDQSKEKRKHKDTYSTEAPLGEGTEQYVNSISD

[17] = target: T7, Sentrin-specific protease 7 (Homo sapiens, UniProt Q9BQF6); assay type: functional;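 also: Luminescence-based dose-response confirmation of ultra-high-throughput screening hits, measuring inhibition of SENP7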
T7 sequence (Q9BQF6 whole entry): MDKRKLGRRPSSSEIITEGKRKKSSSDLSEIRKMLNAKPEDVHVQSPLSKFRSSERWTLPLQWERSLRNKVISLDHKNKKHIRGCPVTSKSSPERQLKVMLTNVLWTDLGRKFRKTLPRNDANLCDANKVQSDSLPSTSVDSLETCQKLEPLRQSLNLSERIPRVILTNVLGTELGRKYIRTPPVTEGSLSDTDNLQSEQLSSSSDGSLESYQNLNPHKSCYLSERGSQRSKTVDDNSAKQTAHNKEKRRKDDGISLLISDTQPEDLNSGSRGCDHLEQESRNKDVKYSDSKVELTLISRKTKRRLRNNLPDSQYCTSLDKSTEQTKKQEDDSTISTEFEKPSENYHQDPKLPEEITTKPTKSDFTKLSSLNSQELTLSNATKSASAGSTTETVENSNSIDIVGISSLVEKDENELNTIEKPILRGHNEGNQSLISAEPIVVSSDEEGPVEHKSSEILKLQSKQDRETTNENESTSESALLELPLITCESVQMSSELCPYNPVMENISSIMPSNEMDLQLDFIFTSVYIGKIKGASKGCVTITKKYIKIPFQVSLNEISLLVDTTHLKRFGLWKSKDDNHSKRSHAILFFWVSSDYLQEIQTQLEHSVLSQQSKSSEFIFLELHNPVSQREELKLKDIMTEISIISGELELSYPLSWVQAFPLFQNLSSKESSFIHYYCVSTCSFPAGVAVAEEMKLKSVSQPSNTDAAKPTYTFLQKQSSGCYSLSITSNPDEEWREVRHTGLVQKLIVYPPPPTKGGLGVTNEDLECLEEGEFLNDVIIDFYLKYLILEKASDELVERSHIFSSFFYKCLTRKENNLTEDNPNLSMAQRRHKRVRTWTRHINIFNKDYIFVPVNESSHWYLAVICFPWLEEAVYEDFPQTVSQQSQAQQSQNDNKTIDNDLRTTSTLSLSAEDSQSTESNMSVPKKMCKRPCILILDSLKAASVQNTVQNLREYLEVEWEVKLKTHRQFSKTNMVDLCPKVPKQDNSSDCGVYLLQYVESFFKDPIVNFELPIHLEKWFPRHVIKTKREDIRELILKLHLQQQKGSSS

## CC1=CC2=NC(=O)/C(=C\c3c(C)[nH]c4ccc(C)cc34)C(=N)N2O1
Prothrombin
  IC50: 32.1 µM (active)
[1]
  IC50: 33.3 µM (active)
[2]
  IC50: > 100 µM (inactive)

## O=C(C[C@@H]1C[C@@H]2c3cc(NC(=O)c4cccnc4)ccc3O[C@@H]2[C@@H](CO)O1)NCc1cccc(F)c1
[3]
  AC50: 5.98 µM (active)

## O=C(c1ccc2c(=O)n(Cc3ccco3)c(=S)[nH]c2c1)N1CCN(Cc2ccccc2)CC1
[4]
  IC50: 23.5 µM (active)
[5]
  IC50: 57.7 µM (active)

## Cc1ccc(NC(=O)C(C)SCc2nc(O)c3c4c(sc3n2)CCCC4)nc1 (centres undefined)
Prothrombin
  IC50: 17.2 µM (active)
[1]
  IC50: 21.9 µM (active)
[2]
  IC50: > 100 µM (inactive)

## Cc1ccc([N+](=O)[O-])cc1S(=O)(=O)Nc1cccc(-c2ccc(N3CCCC3)nn2)c1
[6]
  CC50: 23 µM (active)
[4]
  IC50: 17.7 µM (active)
[5]
  IC50: 39.2 µM (active)

## C=C(c1cccc2ccccc12)P(=O)(O)O
Beta-lactamase [7]
  IC50: > 59.6 µM (inactive)
Beta-lactamase [8]
  IC50: > 59.6 µM (inactive)
Beta-lactamase [9]
  IC50: > 59.6 µM (inactive)
[10]
  IC50: 27 µM (not active)

## C=CCOc1nc2c(c(=O)n(C)c(=O)n2C)n1Cc1ccc(Cl)cc1Cl
Protein Wnt-3a
  IC50: 29.7 µM (inactive)
[11]
  AC50: 7.4 µM (active)
[12]
  AC50: 2.15 µM (active)

## O=C(Nc1ccc2c(c1)[C@H]1C[C@@H](CC(=O)N3CCc4ccccc4C3)O[C@H](CO)[C@H]1O2)c1cccnc1
[3]
  AC50: 6.24 µM (active)

## COc1ccc(C2=NN(c3nc(-c4ccccc4)c(CC(=O)O)s3)C(c3ccco3)C2)cc1 (centres undefined)
[4]
  IC50: 8.39 µM (active)
[5]
  IC50: 18.5 µM (active)
[13]
  IC50: 6.5 µM (active)

## CCOC(=O)c1c(NC(=O)COc2ncnc3ccccc23)sc(C(C)=O)c1C
Protein Wnt-3a
  IC50: 6.86 µM (active)

## Cc1cc(/C=C2\SC(=S)NC2=O)c(C)n1C
Cytochrome P450 2C19
  AC50: 39.8 µM (inconclusive)
Prothrombin
  IC50: 19.4 µM (active)
[1]
  IC50: 16.5 µM (active)
Cytochrome P450 2C9
  AC50: 1.26 µM (inconclusive)
Cytochrome P450 3A4
  AC50: 25.1 µM (inconclusive)
[2]
  IC50: 15.2 µM (active)

## CSC[C@H](NC(=O)COc1cc2c(c3oc(=O)c(C)c(C)c13)CCC(C)(C)O2)C(=O)O
Beta-lactamase [7]
  IC50: > 59.6 µM (inactive)
Beta-lactamase [8]
  IC50: > 59.6 µM (inactive)
Beta-lactamase [9]
  IC50: > 59.6 µM (inactive)

## S=c1[nH]nc(-c2ccccc2)n1CC1CCCO1 (centres undefined)
Beta-lactamase [7]
  IC50: > 59.6 µM (inactive)
Beta-lactamase [8]
  IC50: > 59.6 µM (inactive)
Beta-lactamase [9]
  IC50: > 59.6 µM (inactive)

## Cc1cccc(C(=O)NC2CCN(CC(=O)Nc3ccccc3Cl)CC2)c1
[3]
  AC50: 1.04 µM (active)

## CCc1nc(N)nc(N)c1-c1ccc(N(C)Cc2ccccc2)c([N+](=O)[O-])c1
Protein Wnt-3a
  IC50: 5.28 µM (active)
[12]
  AC50: < 0.26 µM (active)
[14]
  AC50: < 0.26 µM (active)

## CCOC(=O)c1ccc(NC(=O)c2cc3ccccc3o2)cc1
Caspase-3
  IC50: 23.7 µM (active)
[15]
  IC50: > 100 µM (inactive)
[16]
  IC50: 7.74 µM (active)
[17]
  IC50: 5.71 µM (active)
